Experimental data from PMC9549030, “Structural basis for specific inhibition of the deubiquitinase UCHL1” (Nature Communications, 2022).
pIC50: −log10 of the molar value. Values joined by “and” are separate entries in the source; they are usually repeats but may differ in a detail not shown here. Identical values can stand only once. Like-named read-outs stand apart in the source and are kept apart here.

Columns and labels:
UCHL3 = target: T1, UCHL3 (Homo sapiens, UniProt P15374); test: Ub-Rhodamine (Ubiquitin rhodamine cleavage) assay; format: biochemical; conditions: for normalized UCHL3 activity: independent experiments
T1 sequence (P15374 1-230): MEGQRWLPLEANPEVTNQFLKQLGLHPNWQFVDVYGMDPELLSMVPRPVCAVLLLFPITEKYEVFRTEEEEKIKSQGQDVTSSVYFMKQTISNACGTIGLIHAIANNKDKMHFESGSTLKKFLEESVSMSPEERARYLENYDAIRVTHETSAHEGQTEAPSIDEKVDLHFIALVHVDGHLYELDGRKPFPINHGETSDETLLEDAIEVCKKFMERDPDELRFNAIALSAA

UCHL3 A11I,L168F = test: Intact protein mass spectrometry; format: binding, human; conditions: enzyme 3 µM; compound 10 µM; 1 h
Source text: Spectra were deconvoluted with ProMass (Enovatia).

[1] = test system: monoubiquitin in U-87 MG cells; test: Quantification of monoubiquitin levels; format: cell-based, human; conditions: 48 h; for monoubiquitin intensity normalized to DMSO (= 1): independent experiments
Procedure: U-87 MG cells (5 × 10^5/well) were seeded in six-well plates and cultivated for 8 h. Cells were transfected with siRNA as described above. On the next day, cells were cultured in fresh media supplemented with either compounds (final conc. 5 µM) or DMSO, where indicated, for a further 48 h. The media was changed every 24 h to a fresh medium supplemented with compounds (final conc. 5 µM) or DMSO. […] Monoubiquitin band intensities were first normalized to α-tubulin or total protein (Fast Green FCF, TCI) and subsequently normalized to the intensities of monoubiquitin bands in the sample treated with DMSO or siScr (where no DMSO was used) which was set to “1”.

## C#CCCCNC(=O)c1ccc(-n2cnc(NC(=O)[C@H]3CCN(C#N)C3)c2)cc1 [GK13S]
UCHL3; Fig. 6b, catalytic domain, 1 h preincubation, read-out: IC50 (UCHL3)
  pIC50: < 5.00
UCHL3; GK13S 0.305176 nM, 1 h preincubation
  normalized UCHL3 activity: 0.9831 and 1.008 and 0.9131 and 1.009
UCHL3; GK13S 0.610352 nM, 1 h preincubation
  normalized UCHL3 activity: 1.008 and 0.9835 and 0.9698 and 1.0514
UCHL3; GK13S 1.2207 nM, 1 h preincubation
  normalized UCHL3 activity: 0.9936 and 1.008 and 1.001 and 1.003
UCHL3; GK13S 2.44141 nM, 1 h preincubation
  normalized UCHL3 activity: 1.012 and 1.01 and 1.135 and 1.033
UCHL3; GK13S 4.88281 nM, 1 h preincubation
  normalized UCHL3 activity: 1.012 and 1.015 and 0.9843 and 1.023
UCHL3; GK13S 9.76562 nM, 1 h preincubation
  normalized UCHL3 activity: 0.9453 and 1.0198 and 0.9972 and 1.02
UCHL3; GK13S 19.5312 nM, 1 h preincubation
  normalized UCHL3 activity: 1.009 and 0.9664 and 0.9869 and 0.9884
UCHL3; GK13S 39.0625 nM, 1 h preincubation
  normalized UCHL3 activity: 0.985 and 0.9652 and 1.009 and 1.006
UCHL3; GK13S 78.125 nM, 1 h preincubation
  normalized UCHL3 activity: 1.004 and 0.9567 and 0.9151 and 0.8923
UCHL3; GK13S 156.25 nM, 1 h preincubation
  normalized UCHL3 activity: 0.9712 and 0.9475 and 0.9259 and 1.044
UCHL3; GK13S 312.5 nM, 1 h preincubation
  normalized UCHL3 activity: 1.024 and 0.9438 and 0.9427 and 1.0301
UCHL3; GK13S 625 nM, 1 h preincubation
  normalized UCHL3 activity: 1.039 and 0.9614 and 0.9134 and 1.027
UCHL3; GK13S 1250 nM, 1 h preincubation
  normalized UCHL3 activity: 1.008 and 0.9574 and 0.9187 and 1.016
UCHL3; GK13S 2500 nM, 1 h preincubation
  normalized UCHL3 activity: 0.975 and 0.9516 and 0.9328 and 0.9957
UCHL3; GK13S 5000 nM, 1 h preincubation
  normalized UCHL3 activity: 0.9885 and 0.924 and 0.8998 and 0.9921
UCHL3; GK13S 10000 nM, 1 h preincubation
  normalized UCHL3 activity: 0.972 and 0.9338 and 0.9178 and 0.9898
UCHL3; Supplementary Fig. 10c, 3 independent experiments, read-out: IC50 (UCHL3 wt)
  pIC50: < 4.00
UCHL3 A11I,L168F
  protein species observed after compound treatment: + 1x GK13S
[1]; 5 µM
  levels of free monoubiquitin (western blot): reduced
[1]; siSCr, 5 µM
  monoubiquitin intensity normalized to DMSO (= 1): 0.576 and 0.6744 and 0.83 and 0.6532
[1]; siUCHL3, 5 µM
  monoubiquitin intensity normalized to DMSO (= 1): 0.757 and 0.6937 and 0.5404 and 0.5552 and 0.8593 and 0.6907
